Laboratory results published in US20250270190A1, “KIT INHIBITORS” (BLUEPRINT MEDICINES CORPORATION, priority 2022, published 2025).
pIC50: −log10 of the molar value.

Molecular target: T1, c-kit autophosphorylation (Phospho c-Kit Tyr721) in HMC 1.1 (exon 11/13) cells, V654A (Homo sapiens, UniProt P10721, V560G/V654A)
T1 construct: endogenous in cells; host or cells: HMC 1.1 (exon 11/13) cells
Experiment: pKIT Meso Scale Discovery (MSD) assay, inhibition of autophosphorylation of KIT, HMC1.1_V654A
Assay type: cell-based
Settings: Table 1, cell line not named for Table 1, b1056 names pKIT HMC1.1_V654A, read-out: Code (IC50 for inhibition of autophosphorylation of KIT, pKIT MSD assay)
Description: In this MSD assay, specific capture antibodies for the analytes were coated in arrays in each well of a 96-well carbon electrode plate surface. The detection system used SULFO-TAG™ labels that emit light upon electrochemical stimulation initiated at the electrode surfaces of the […] and MULTI-SPOT® plates. The electrical stimulation was decoupled from the output signal, which was light and generated assays with minimal background. The goal of this assay was to assess the percent inhibition of autophosphorylation of c-kit in cells when treated with compounds of the disclosure in a dose-dependent manner.
HMC1.1 cells were maintained in IMDM media supplemented with 20% Calf Serum with Iron and 100 units/mL Penicillin-Streptomycin and grown in a 37° C. humidified tissue culture incubator. HMC1.1 cells were passaged by 1:5 dilution into fresh IMDM media supplemented with 20% Calf Serum with Iron and 100 units/mL Penicillin-Streptomycin every 5-7 days and were discarded after 20 passages.
Seeding was performed as follows: HMC cells were brought to 1×10^6 cells/mL in fresh phenol red free, serum-free, iron-free IDM media with Pen/Strep; cells were seeded/plated into respective U-bottom plate by dispensing 50 μL/well (50,000 cells) using the Multidrop, and covered and incubated cells at 37° C. in a humidified tissue culture incubator for 4 hours (starvation).
Dosing was performed as follows: The compound mother plate was prepared by adding 16 μL of compound to 24 μL of DMSO to row A, odd-numbered columns of screen matrix plate. […] Intermediate plates were prepared in V-bottom plates by dispensing 98 μL of phenol red free, serum free IMDM media with Pen/Strep into all wells. 2 μL DMSO or 2 μL 10 mM staurosporine was added to appropriate control wells. At the end of four hours, the Bravo protocol 10 cpds vertical dose MSD 2 U-plates 96-well was used to: add 2 μL from the compound plate to the intermediate plate and dose cells with 7 μL from the intermediate plate. The cells were covered and incubated at 37° C. in a humidified tissue culture incubator for 90 min. The complete lysis buffer was prepared with AlphaLISA 5× Lysis Buffer supplemented with 1× protease inhibitor cocktail and kept on ice. The cells were pelleted by centrifuging plate at 2500×g for 5 min, 4° C. and media removed. Complete lysis buffer was added (14 μL/well). The cells were covered and shaken at 4° C. on a plate shaker at 600 rpm for 30 min and kept cold
The MSD protocol was preformed as follows: Tris Wash Buffer (2L) was prepared by diluting 10× stock of Tris Wash Buffer to 1× in water. Blocking Solution was prepared by dissolving 600 mg Blocker A in 20 mL 1× Trish Wash Buffer (per plate). The Antibody Dilution Buffer was prepared by mixing 1 mL Blocking solution and 2 mL 1× Trish Wash Buffer (per plate) and kept on ice. Blocking Solution was added (150 μL/well) to each MSD plate using a multichannel repeater pipette. The plate was covered and incubated at room temperature on a plate shaker at 700 rpm for hr. The Bio Tek protocol RL-96w-wash-MSD_stacker_fromC was used to wash plates 3× with 150 μL/well. Cells were pelleted by centrifuging lysate plates at 2500×g for 5 mins. The Bravo protocol was used (transfer 25 ul supernatants from V-96 to assay plate) to transfer 25 μL sample lysate per well to each MSD plate. The plates were covered and incubated at room temperature on a plate shaker at 700 rpm for hr. The Bio Tek protocol RL-96w-wash-MSD_stacker_fromC was used to wash plates 3× with 150 μL/well. The Detection Antibody Solution was prepared by diluting the 60 μL of the 50× antibody stock in 2.94 mL of the Antibody Dilution Buffer (per plate) and kept on ice. 25 μL/well of detection antibody solution was added to each MSD plate. The plates were covered and incubated at room temperature on a plate shaker at 700 rpm for 1 hr. The Read Buffer was prepared by diluting 5 mL of 4× stock of Read Buffer to 1× in 15 mL water (per plate).

T1 sequence (P10721 26-976 V560G/V654A): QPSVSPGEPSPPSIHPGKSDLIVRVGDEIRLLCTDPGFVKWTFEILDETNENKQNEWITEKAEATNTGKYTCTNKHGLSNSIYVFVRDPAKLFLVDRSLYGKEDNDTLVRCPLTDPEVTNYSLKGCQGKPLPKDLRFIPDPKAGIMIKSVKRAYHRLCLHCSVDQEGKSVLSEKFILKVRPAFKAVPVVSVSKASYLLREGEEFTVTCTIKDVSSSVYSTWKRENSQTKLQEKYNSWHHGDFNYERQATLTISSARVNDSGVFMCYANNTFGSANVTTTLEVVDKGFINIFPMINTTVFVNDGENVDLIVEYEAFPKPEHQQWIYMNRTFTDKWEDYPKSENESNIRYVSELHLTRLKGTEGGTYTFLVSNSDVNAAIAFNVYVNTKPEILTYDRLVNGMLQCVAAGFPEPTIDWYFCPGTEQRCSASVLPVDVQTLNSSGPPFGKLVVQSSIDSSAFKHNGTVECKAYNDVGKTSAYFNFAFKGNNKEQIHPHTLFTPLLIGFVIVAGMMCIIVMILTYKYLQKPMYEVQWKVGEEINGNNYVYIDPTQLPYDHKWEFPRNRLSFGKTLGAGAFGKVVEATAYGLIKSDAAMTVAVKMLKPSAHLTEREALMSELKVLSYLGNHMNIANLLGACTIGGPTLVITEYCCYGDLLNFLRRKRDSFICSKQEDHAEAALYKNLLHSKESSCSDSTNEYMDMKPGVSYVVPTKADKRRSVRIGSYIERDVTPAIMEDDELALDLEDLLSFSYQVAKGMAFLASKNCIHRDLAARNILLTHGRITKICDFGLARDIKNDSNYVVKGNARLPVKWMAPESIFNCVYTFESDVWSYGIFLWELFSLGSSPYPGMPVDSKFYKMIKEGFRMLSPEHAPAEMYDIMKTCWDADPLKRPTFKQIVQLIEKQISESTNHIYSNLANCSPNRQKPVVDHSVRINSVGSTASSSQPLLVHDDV

pIC50 | Compound
> 8.00 | 6-((6-amino-2-(difluoromethyl)pyrimidin-4-yl)amino)-N-methyl-4-((4-methyltetrahydro-2H-pyran-4-yl)amino)nicotinamide [Compound 125]
7.40 to 8.00 | 6-((6-amino-4-(difluoromethyl)pyridin-2-yl)amino)-4-(((1R,2S)-2-fluorocyclopropyl)amino)-N-methylnicotinamide [Compound 44]
7.40 to 8.00 | 6-((6-amino-4-(difluoromethyl)pyridin-2-yl)amino)-4-(((1S,2R)-2-fluorocyclopropyl)amino)-N-methylnicotinamide [Compound 45]
7.40 to 8.00 | CNC(=O)c1cnc(Nc2cc(N)nc(CF)n2)cc1NC(C)CF (single isomer, unassigned) [Compound 27, (S)-6-((6-amino-2-(fluoromethyl)pyrimidin-4-yl)amino)-4-((1-fluoropropan-2-yl)amino)-N-methylnicotinamide or (R)-6-((6-amino-2-(fluoromethyl)pyrimidin-4-yl)amino)-4-((1-fluoropropan-2-yl)amino)-N-methylnicotinamide]
< 7.40 | CNC(=O)c1cnc(Nc2cc(N)nc(CF)n2)cc1NC(C)CF (single isomer, unassigned) [Compound 28, (R)-6-((6-amino-2-(fluoromethyl)pyrimidin-4-yl)amino)-4-((1-fluoropropan-2-yl)amino)-N-methylnicotinamide or (S)-6-((6-amino-2-(fluoromethyl)pyrimidin-4-yl)amino)-4-((1-fluoropropan-2-yl)amino)-N-methylnicotinamide]
> 8.00 | C[C@@H](CF)Oc1cc(Nc2cc(N)nc(C(F)F)n2)ncc1-c1cnn(C)c1 (single isomer, unassigned) [Compound 87, (S)-2-(difluoromethyl)-N4-(4-((1-fluoropropan-2-yl)oxy)-5-(1-methyl-1H-pyrazol-4-yl)pyridin-2-yl)pyrimidine-4,6-diamine or (R)-2-(difluoromethyl)-N4-(4-((1-fluoropropan-2-yl)oxy)-5-(1-methyl-1H-pyrazol-4-yl)pyridin-2-yl)pyrimidine-4,6-diamine]
> 8.00 | C[C@H](CF)Oc1cc(Nc2cc(N)nc(C(F)F)n2)ncc1-c1cnn(C)c1 (single isomer, unassigned) [Compound 88, (R)-2-(difluoromethyl)-N4-(4-((1-fluoropropan-2-yl)oxy)-5-(1-methyl-1H-pyrazol-4-yl)pyridin-2-yl)pyrimidine-4,6-diamine or (S)-2-(difluoromethyl)-N4-(4-((1-fluoropropan-2-yl)oxy)-5-(1-methyl-1H-pyrazol-4-yl)pyridin-2-yl)pyrimidine-4,6-diamine]
7.40 to 8.00 | COc1cc(Nc2cc(N)nc(C(F)F)n2)ncc1-c1cnn([C@H]2CCNC2)c1 (single isomer, unassigned) [Compound 99, (S)-2-(difluoromethyl)-N4-(4-methoxy-5-(1-(pyrrolidin-3-yl)-1H-pyrazol-4-yl)pyridin-2-yl)pyrimidine-4,6-diamine or (R)-2-(difluoromethyl)-N4-(4-methoxy-5-(1-(pyrrolidin-3-yl)-1H-pyrazol-4-yl)pyridin-2-yl)pyrimidine-4,6-diamine]
7.40 to 8.00 | COc1cc(Nc2cc(N)nc(C(F)F)n2)ncc1-c1cnn([C@@H]2CCNC2)c1 (single isomer, unassigned) [Compound 100, (R)-2-(difluoromethyl)-N4-(4-methoxy-5-(1-(pyrrolidin-3-yl)-1H-pyrazol-4-yl)pyridin-2-yl)pyrimidine-4,6-diamine or (S)-2-(difluoromethyl)-N4-(4-methoxy-5-(1-(pyrrolidin-3-yl)-1H-pyrazol-4-yl)pyridin-2-yl)pyrimidine-4,6-diamine]
< 7.40 | COc1cc(Nc2cc(N)nc(C(F)F)n2)ncc1-c1cnn(C[C@H]2CCN2)c1 (single isomer, unassigned) [Compound 101, (R)-N4-(5-(1-(azetidin-2-ylmethyl)-1H-pyrazol-4-yl)-4-methoxypyridin-2-yl)-2-(difluoromethyl)pyrimidine-4,6-diamine or (S)-N4-(5-(1-(azetidin-2-ylmethyl)-1H-pyrazol-4-yl)-4-methoxypyridin-2-yl)-2-(difluoromethyl)pyrimidine-4,6-diamine]
> 8.00 | COc1cc(Nc2cc(N)nc(C(F)F)n2)ncc1-c1cnn(C[C@@H]2CCN2)c1 (single isomer, unassigned) [Compound 102, (S)-N4-(5-(1-(azetidin-2-ylmethyl)-1H-pyrazol-4-yl)-4-methoxypyridin-2-yl)-2-(difluoromethyl)pyrimidine-4,6-diamine or (R)-N4-(5-(1-(azetidin-2-ylmethyl)-1H-pyrazol-4-yl)-4-methoxypyridin-2-yl)-2-(difluoromethyl)pyrimidine-4,6-diamine]
> 8.00 | COc1cc(Nc2cc(N)nc(C(F)F)n2)ncc1-c1cnn([C@H]2CCOC2)c1 (single isomer, unassigned) [Compound 109, (S)-2-(difluoromethyl)-N4-(4-methoxy-5-(1-(tetrahydrofuran-3-yl)-1H-pyrazol-4-yl)pyridin-2-yl)pyrimidine-4,6-diamine or (R)-2-(difluoromethyl)-N4-(4-methoxy-5-(1-(tetrahydrofuran-3-yl)-1H-pyrazol-4-yl)pyridin-2-yl)pyrimidine-4,6-diamine]
> 8.00 | COc1cc(Nc2cc(N)nc(C(F)F)n2)ncc1-c1cnn([C@@H]2CCOC2)c1 (single isomer, unassigned) [Compound 110, (R)-2-(difluoromethyl)-N4-(4-methoxy-5-(1-(tetrahydrofuran-3-yl)-1H-pyrazol-4-yl)pyridin-2-yl)pyrimidine-4,6-diamine or (S)-2-(difluoromethyl)-N4-(4-methoxy-5-(1-(tetrahydrofuran-3-yl)-1H-pyrazol-4-yl)pyridin-2-yl)pyrimidine-4,6-diamine]
> 8.00 | CN[C@@H](C)Cn1cc(-c2cnc(Nc3cc(N)nc(C(F)F)n3)cc2OC)cn1 (single isomer, unassigned) [Compound 117, (S)-2-(difluoromethyl)-N4-(4-methoxy-5-(1-(2-(methylamino)propyl)-1H-pyrazol-4-yl)pyridin-2-yl)pyrimidine-4,6-diamine or (R)-2-(difluoromethyl)-N4-(4-methoxy-5-(1-(2-(methylamino)propyl)-1H-pyrazol-4-yl)pyridin-2-yl)pyrimidine-4,6-diamine]
7.40 to 8.00 | CN[C@H](C)Cn1cc(-c2cnc(Nc3cc(N)nc(C(F)F)n3)cc2OC)cn1 (single isomer, unassigned) [Compound 118, (R)-2-(difluoromethyl)-N4-(4-methoxy-5-(1-(2-(methylamino)propyl)-1H-pyrazol-4-yl)pyridin-2-yl)pyrimidine-4,6-diamine or (S)-2-(difluoromethyl)-N4-(4-methoxy-5-(1-(2-(methylamino)propyl)-1H-pyrazol-4-yl)pyridin-2-yl)pyrimidine-4,6-diamine]
> 8.00 | COc1cc(Nc2cc(N)nc(C(F)F)n2)ncc1-c1cnn(C[C@H]2CCN2C)c1 (single isomer, unassigned) [Compound 138, (R)-2-(difluoromethyl)-N4-(4-methoxy-5-(1-((1-methylazetidin-2-yl)methyl)-1H-pyrazol-4-yl)pyridin-2-yl)pyrimidine-4,6-diamine or (S)-2-(difluoromethyl)-N4-(4-methoxy-5-(1-((1-methylazetidin-2-yl)methyl)-1H-pyrazol-4-yl)pyridin-2-yl)pyrimidine-4,6-diamine]
